Test results published in patent US20260224563A1, “CRYSTALLINE FORMS OF 6-(3-((5-CHLORO-2-METHOXYPYRIDINE)-3-SULFONAMIDO)-2,6-DIFLUOROPHENYL)-N-METHYLIMIDAZO[1,5-A]PYRAZINE-1-CARBOXAMIDE AND METHODS FOR USING THE SAME” (HIBERCELL, INC., priority 2023, published 2026).
Read-outs that look alike come from different tables or passages of the source.

Assay: Multicenter, open-label, Phase 1a/b study of HC-7366 in subjects with advanced solid tumors (safety, PK)
Format: in vivo
Conditions: for ARAUC: accumulation ratio based on AUC0-τ; for ARAUC / CL/F / Ctrough / DAUC0-last / DAUC0-τ / DCmax / tlast / Cmax / half-life / AUC(0-t) / Vd/F / Tmax: human; for Cmax / half-life / AUC(0-t) / Vd/F / Tmax: plasma, po; for Vd/F: read-out: Vz/F
Text: Identify the maximum tolerated dose (MTD) and/or recommended Phase 2 dose (RP2D) of HC-7366, and evaluate the safety, tolerability, and dose-limiting toxicities (DLTs) of HC-7366 using Form III of the potassium salt of the compound of formula (I) (see Example 6, also referred to within this example as HC-7366-K), in subjects with advanced solid tumors, including: • a. occurrence of DLTs • b. incidence and severity of treatment-emergent adverse events (TEAEs) and treatment related TEAEs according to National Cancer Institute Common Terminology Criteria for Adverse Events (NCI CTCAE) v 5.0 • c. incidence of TEAEs leading to premature discontinuation • d. incidence of laboratory abnormalities, based on NCI CTCAE grades of hematology, serum chemistry, and urinalysis test results • e. incidence of abnormalities observed in 12 lead ECG parameters • f. incidence of abnormalities observed in vital signs measurements
Determine plasma concentration and pharmacokinetic (PK) parameters following treatment with HC-7366 using Form III of the potassium salt of the compound of formula (I) (see Example 6, also referred to within this example as HC-7366-K).
Preliminarily assess the potential antitumor activity of HC-7366 in terms of response rate, disease stabilization, and survival outcomes by assessing: • a. Overall response rate (ORR) to HC-7366 using response evaluation criteria in solid tumors (iRECIST) • b. Duration of response (DOR) to HC-7366 using iRECIST • c. Time to treatment failure (TTF) • d. Progression free survival (PFS) using iRECIST • e. Overall survival (OS)
This is a first in human, multicenter, open label, Phase 1a and 1b dose-escalation and dose-expansion study to establish the maximum tolerated dose, recommended Phase 2 dose, and evaluate the safety and tolerability of QD oral dosing of HC 7366 in a dose escalating fashion in subjects with advanced solid tumors. Up to 40 subjects were enrolled into the Phase 1a dose-escalation part of the study. The study was conducted in the United States at approximately 7 to 10 sites.
Every effort was made to ensure approximately 50% of all subjects enrolled into Phase 1a of this study are subjects with the tumors of special interest including squamous cell carcinoma of the head and neck, colorectal cancer, non-small cell lung cancer, and transitional cell carcinoma of the bladder. […] All subjects in Phase 1b enrolled with clear cell renal cell carcinoma. The Phase 1a study followed a traditional 3+3 design. The starting dose level was 10 mg QD, escalating to 20, 40, 75, 125, and 150 mg QD as safety allows. All doses were administered in the fasting state with water at least 1 hour before food or at least 2 hours after food.
The Phase 1b dose-expansion was at a single dose level of 75 mg based on the safety, tolerability, PK/PD results from Phase 1a to obtain additional safety and preliminary efficacy information. Up to 30 subjects were enrolled in the Phase 1b portion of the study at the 75 mg dose. Replacement patients were enrolled as necessary. Subjects were dosed until unacceptable toxicity, disease progression per immune-related Response Evaluation Criteria in Solid Tumors, discontinuation of treatment for other protocol allowed reason (eg, subject refusal), any other administrative reasons, or after 2 years of treatment, whichever occurs first.
For scheduling purposes, dosing in Phase 1a and 1b occurred in 3 week cycles and computed tomography scans were conducted once every 6 weeks from Cycle 1/Day 1, with the first postbaseline scan after 6 weeks of dosing (precycle 3) until confirmed disease progression, death, start of new anticancer therapy, withdrawal of consent, or end of study, whichever occurs first.
Subjects of Phase 1a and 1b spent Cycle 1/Day 1 (C1D1) in the clinic followed by an optional overnight stay for safety monitoring and PK sampling. Subjects were hospitalized (optional) for administration of the first 2 doses: C1D1 and Cycle 1/Day 2 (C1D2). […]

[1] = multiple once daily oral 10 mg (N = 3), Cycle 1 Day 21, geometric mean
[2] = multiple once daily oral 20 mg (N = 3), Cycle 1 Day 21, geometric mean
[3] = multiple once daily oral 40 mg (N = 8), Cycle 1 Day 21, geometric mean
[4] = multiple once daily oral 75 mg (N = 7), Cycle 1 Day 21, geometric mean
[5] = multiple once daily oral 125 mg (N = 1), Cycle 1 Day 21
[6] = human subjects, multiple once daily oral administration, 10 mg
[7] = human subjects, multiple once daily oral administration, 20 mg
[8] = human subjects, multiple once daily oral administration, 40 mg
[9] = human subjects, multiple once daily oral administration, 75 mg
[10] = human subjects, multiple once daily oral administration, 125 mg (N=1)
[11] = 10 mg, multiple once daily oral 10 mg (N = 3), Cycle 1 Day 21, geometric mean
[12] = 10 mg, single oral dose 10 mg (N = 3), Cycle 1 Day 1, geometric mean
[13] = 20 mg, multiple once daily oral 20 mg (N = 3), Cycle 1 Day 21, geometric mean
[14] = 20 mg, single oral dose 20 mg (N = 3), Cycle 1 Day 1, geometric mean
[15] = 40 mg, multiple once daily oral 40 mg (N = 8), Cycle 1 Day 21, geometric mean
[16] = 40 mg, single oral dose 40 mg (N = 11), Cycle 1 Day 1, geometric mean

SMILES: CNC(=O)c1ncn2cc(-c3c(F)ccc(NS(=O)(=O)c4cc(Cl)cnc4OC)c3F)ncc12 [HC-7366, 6-(3-((5-chloro-2-methoxypyridine)-3-sulfonamido)-2,6-difluorophenyl)-N-methylimidazo[1,5-a]pyrazine-1-carboxamide]
- ARAUC [1]: 1.45
- ARAUC [2]: 1.46
- ARAUC [3]: 1.89
- ARAUC [4]: 1.77
- ARAUC [5]: 1.13
- dose proportionality of exposure (geometric mean Cmax and AUC) (human subjects, 10 to 75 mg, single dose and multiple once daily dosing): increased approximately proportional to increases in dose
- time by which exposure appeared to be at steady-state (human subjects, continuous once daily dosing, trough concentrations): Cycle 1 Day 8 to Day 15
- dose proportionality of exposure (human subjects, increase from 75 to 125 mg, single dose administration): slightly greater than dose proportional
- geometric mean accumulation ratio (ARAUC) [6]: 1.45
- geometric mean linearity ratio (LR) [6]: 1.11
- geometric mean accumulation ratio (ARAUC) [7]: 1.46
- geometric mean linearity ratio (LR) [7]: 1.14
- geometric mean accumulation ratio (ARAUC) [8]: 1.89
- geometric mean linearity ratio (LR) [8]: 1.11
- geometric mean accumulation ratio (ARAUC) [9]: 1.77
- geometric mean linearity ratio (LR) [9]: 1.22
- accumulation ratio (ARAUC) [10]: 1.13
- linearity ratio (LR) [10]: 0.759
- CL/F [1]: 0.457 L/h
- Ctrough [1]: 517 ng/mL
- DAUC0-last [1]: 1700 ng·h/mL/mg
- DAUC0-τ [1]: 2190 ng·h/mL/mg
- DCmax [1]: 198 ng/mL/mg
- tlast (multiple once daily oral 10 mg (N = 3), Cycle 1 Day 21, median): 12.00 h
- CL/F [2]: 0.478 L/h
- Ctrough [2]: 674 ng/mL
- DAUC0-last [2]: 2090 ng·h/mL/mg
- DAUC0-τ [2]: 2090 ng·h/mL/mg
- DCmax [2]: 185 ng/mL/mg
- tlast (multiple once daily oral 20 mg (N = 3), Cycle 1 Day 21, median): 24.00 h
- CL/F [3]: 0.403 L/h
- Ctrough [3]: 2360 ng/mL
- DAUC0-last [3]: 2380 ng·h/mL/mg
- DAUC0-τ [3]: 2480 ng·h/mL/mg
- DCmax [3]: 184 ng/mL/mg
- tlast (multiple once daily oral 40 mg (N = 8), Cycle 1 Day 21, median): 24.00 h
- CL/F [4]: 0.402 L/h
- Ctrough [4]: 5010 ng/mL
- DAUC0-last [4]: 2210 ng·h/mL/mg
- DAUC0-τ [4]: 2490 ng·h/mL/mg
- DCmax [4]: 190 ng/mL/mg
- tlast (multiple once daily oral 75 mg (N = 7), Cycle 1 Day 21, median): 24.00 h
- CL/F [5]: 0.311 L/h
- Ctrough [5]: 3780 ng/mL
- DAUC0-last [5]: 2080 ng·h/mL/mg
- DAUC0-τ [5]: 3210 ng·h/mL/mg
- DCmax [5]: 306 ng/mL/mg
- Cmax [11]: 1980 ng/mL
- half-life [11]: 9.94 h
- AUC(0-t) (10 mg, multiple once daily oral 10 mg (N = 3), Cycle 1 Day 21, geometric mean, read-out: AUC0-last): 17000 ng·h/mL
- Vd/F [11]: 6.55 L
- Tmax (10 mg, multiple once daily oral 10 mg (N = 3), Cycle 1 Day 21, median): 2 h
- Cmax [12]: 1450 ng/mL
- half-life [12]: 11.3 h
- AUC(0-t) (10 mg, single oral dose 10 mg (N = 3), Cycle 1 Day 1, geometric mean, read-out: AUC0-24): 15100 ng·h/mL
- AUC(0-t) (10 mg, single oral dose 10 mg (N = 3), Cycle 1 Day 1, geometric mean, read-out: AUC0-last): 15100 ng·h/mL
- Vd/F [12]: 8.26 L
- Tmax (10 mg, single oral dose 10 mg (N = 3), Cycle 1 Day 1, median): 2 h
- Cmax [13]: 3710 ng/mL
- half-life [13]: 12.2 h
- AUC(0-t) (20 mg, multiple once daily oral 20 mg (N = 3), Cycle 1 Day 21, geometric mean, read-out: AUC0-last): 41900 ng·h/mL
- Vd/F [13]: 8.4 L
- Tmax (20 mg, multiple once daily oral 20 mg (N = 3), Cycle 1 Day 21, median): 2 h
- Cmax [14]: 2330 ng/mL
- half-life [14]: 9.99 h
- AUC(0-t) (20 mg, single oral dose 20 mg (N = 3), Cycle 1 Day 1, geometric mean, read-out: AUC0-24): 28700 ng·h/mL
- AUC(0-t) (20 mg, single oral dose 20 mg (N = 3), Cycle 1 Day 1, geometric mean, read-out: AUC0-last): 28700 ng·h/mL
- Vd/F [14]: 7.84 L
- Tmax (20 mg, single oral dose 20 mg (N = 3), Cycle 1 Day 1, median): 4 h
- Cmax [15]: 7360 ng/mL
- half-life [15]: 12.4 h
- AUC(0-t) (40 mg, multiple once daily oral 40 mg (N = 8), Cycle 1 Day 21, geometric mean, read-out: AUC0-last): 95000 ng·h/mL
- Vd/F [15]: 8.31 L
- Tmax (40 mg, multiple once daily oral 40 mg (N = 8), Cycle 1 Day 21, median): 2 h
- Cmax [16]: 4520 ng/mL
- half-life [16]: 14.8 h
